Test results taken from ChEMBL document CHEMBL1201862, “PubChem BioAssay data set” (2004).
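Values below derive from 48-hour exposures of cells grown in 96-well plates, with endpoints linearly interpolated between the two concentrations bracketing the appropriate inhibition level. GI50 marks 50% less growth.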 Calls of active or inactive are those of the source. No stated cut-off is given here; in the data, active = GI50 up to about 1.1 µM and inactive = higher.

How the values were obtained:
Experiment in all cases: NCI-60 cell line screen, 48 h
SF-539 = system: SF-539
TK-10 = system: TK-10
HCC 2998 = system: HCC 2998
786-0 = system: 786-0
HL-60 = system: HL-60
Malme-3M = system: Malme-3M
K562 = system: K562
U-251 = system: U-251
UO-31 = system: UO-31
SN12C = system: SN12C
SK-MEL-5 = system: SK-MEL-5
NCI/ADR-RES = system: NCI/ADR-RES
CCRF-CEM = system: CCRF-CEM
NCI-H226 = system: NCI-H226
HOP-62 = system: HOP-62
HT-29 = system: HT-29
ACHN = system: ACHN
SK-OV-3 = system: SK-OV-3
NCI-H23 = system: NCI-H23
SNB-19 = system: SNB-19
MCF7 = system: MCF7
SF-295 = system: SF-295
NCI-H460 = system: NCI-H460
SK-MEL-2 = system: SK-MEL-2
HCT-116 = system: HCT-116
MOLT-4 = system: MOLT-4
IGROV-1 = system: IGROV-1
MDA-N = system: MDA-N
OVCAR-3 = system: OVCAR-3
HCT-15 = system: HCT-15
SK-MEL-28 = system: SK-MEL-28
EKVX = system: EKVX
RPMI-8226 = system: RPMI-8226
RXF 393 = system: RXF 393
OVCAR-4 = system: OVCAR-4
BT-549 = system: BT-549
DU-145 = system: DU-145
UACC-257 = system: UACC-257
KM12 = system: KM12
CAKI-1 = system: CAKI-1
NCI-H522 = system: NCI-H522
A549 = system: A549
M14 = system: M14
PC-3 = system: PC-3
SNB-75 = system: SNB-75
COLO 205 = system: COLO 205
OVCAR-8 = system: OVCAR-8
SW-620 = system: SW-620
UACC-62 = system: UACC-62
SR = system: SR
OVCAR-5 = system: OVCAR-5
SF-268 = system: SF-268
HOP-92 = system: HOP-92
MDA-MB-435 = system: MDA-MB-435
T47D = system: T47D
LOX IMVI = system: LOX IMVI
Hs-578T = system: Hs-578T
MDA-MB-231 = system: MDA-MB-231

How did the GI50 (SF-539) turn out when `O=C(/C=C/c1ccccc1)CSc1nc[nH]n1` was run?
The GI50 was > 100 µM (inactive).

And the GI50 (TK-10)?
The GI50 was > 100 µM (inactive).

What about the GI50 (HCC 2998) of the same molecule?
The GI50 was > 100 µM (inactive).

And the GI50 (786-0)?
The GI50 was > 100 µM (inactive).

And the GI50 (HL-60)?
Its GI50 is 45.9 µM (inactive).

And the GI50 (Malme-3M)?
Its GI50 is > 100 µM (inactive).

And the GI50 (K562)?
The GI50 was 46.8 µM (inactive).

What about the GI50 (U-251) of the same molecule?
The GI50 was 37.1 µM (inactive).

What about the GI50 (UO-31) of the same molecule?
The GI50 was > 100 µM (inactive).

What about the GI50 (SN12C) of the same molecule?
The GI50 was > 100 µM (inactive).

And the GI50 (SK-MEL-5)?
Its GI50 is 38.5 µM (inactive).

What about the GI50 (NCI/ADR-RES) of the same molecule?
The GI50 was > 100 µM (inactive).

What about the GI50 (CCRF-CEM) of the same molecule?
Its GI50 is 34.8 µM (inactive).

And the GI50 (NCI-H226)?
Its GI50 is > 100 µM (inactive).

And the GI50 (HOP-62)?
Its GI50 is > 100 µM (inactive).

What about the GI50 (HT-29) of the same molecule?
Its GI50 is 44.4 µM (inactive).

What about the GI50 (ACHN) of the same molecule?
Its GI50 is > 100 µM (inactive).

And the GI50 (SK-OV-3)?
The GI50 was > 100 µM (inactive).

And the GI50 (NCI-H23)?
The GI50 was > 100 µM (inactive).

And the GI50 (SNB-19)?
The GI50 was > 100 µM (inactive).

And the GI50 (MCF7)?
Its GI50 is 36.4 µM (inactive).

What about the GI50 (SF-295) of the same molecule?
Its GI50 is 81.1 µM (inactive).

And the GI50 (NCI-H460)?
Its GI50 is 79.4 µM (inactive).

What about the GI50 (SK-MEL-2) of the same molecule?
The GI50 was > 100 µM (inactive).

What about the GI50 (HCT-116) of the same molecule?
The GI50 was 33 µM (inactive).

And the GI50 (MOLT-4)?
The GI50 was 63.2 µM (inactive).

What about the GI50 (IGROV-1) of the same molecule?
The GI50 was > 100 µM (inactive).

And the GI50 (MDA-N)?
Its GI50 is > 100 µM (inactive).

And the GI50 (OVCAR-3)?
The GI50 was > 100 µM (inactive).

What about the GI50 (HCT-15) of the same molecule?
The GI50 was 41.3 µM.

What about the GI50 (SK-MEL-28) of the same molecule?
The GI50 was 56.9 µM (inactive).

What about the GI50 (EKVX) of the same molecule?
Its GI50 is > 100 µM (inactive).

And the GI50 (RPMI-8226)?
Its GI50 is 35.1 µM (inactive).

And the GI50 (RXF 393)?
Its GI50 is > 100 µM (inactive).

And the GI50 (OVCAR-4)?
The GI50 was > 100 µM (inactive).

What about the GI50 (BT-549) of the same molecule?
The GI50 was > 100 µM (inactive).

What about the GI50 (DU-145) of the same molecule?
Its GI50 is > 100 µM (inactive).

And the GI50 (UACC-257)?
Its GI50 is > 100 µM (inactive).

What about the GI50 (KM12) of the same molecule?
The GI50 was > 100 µM (inactive).

What about the GI50 (CAKI-1) of the same molecule?
Its GI50 is > 100 µM (inactive).

And the GI50 (NCI-H522)?
The GI50 was 30.5 µM (inactive).

And the GI50 (A549)?
The GI50 was > 100 µM (inactive).

And the GI50 (M14)?
The GI50 was > 100 µM (inactive).

What about the GI50 (PC-3) of the same molecule?
Its GI50 is > 100 µM (inactive).

And the GI50 (SNB-75)?
The GI50 was 14.3 µM (inactive).

And the GI50 (COLO 205)?
Its GI50 is > 100 µM (inactive).

And the GI50 (OVCAR-8)?
Its GI50 is > 100 µM (inactive).

What about the GI50 (SW-620) of the same molecule?
Its GI50 is 65.5 µM (inactive).

And the GI50 (UACC-62)?
Its GI50 is > 100 µM (inactive).

And the GI50 (SR)?
Its GI50 is 62.1 µM (inactive).

And the GI50 (OVCAR-5)?
The GI50 was > 100 µM (inactive).

What about the GI50 (SF-268) of the same molecule?
The GI50 was > 100 µM (inactive).

`CC(C)CC1C(=O)NCCC(NC(=O)C(Cc2ccc(OC(C)(C)C)cc2)NC(=O)OC(C)(C)C)C(=O)NC(Cc2ccccc2)C(=O)NC(Cc2ccccc2)NC1=O` (stereo unspecified) was tested. Which GI50 (SF-539) did it give?
The GI50 was 23.2 µM (inactive).

What about the GI50 (TK-10) of the same molecule?
The GI50 was 11.7 µM (inactive).

And the GI50 (HCC 2998)?
Its GI50 is 17.3 µM (inactive).

What about the GI50 (786-0) of the same molecule?
Its GI50 is 1.71 µM (inactive).

What about the GI50 (HL-60) of the same molecule?
Its GI50 is 8.36 µM (inactive).

And the GI50 (Malme-3M)?
The GI50 was 13.6 µM (inactive).

What about the GI50 (HOP-92) of the same molecule?
Its GI50 is 11.2 µM (inactive).

And the GI50 (K562)?
The GI50 was 3.02 µM (inactive).

What about the GI50 (U-251) of the same molecule?
The GI50 was 12.8 µM (inactive).

What about the GI50 (UO-31) of the same molecule?
The GI50 was > 100 µM (inactive).

What about the GI50 (SN12C) of the same molecule?
Its GI50 is 16.5 µM (inactive).

And the GI50 (MDA-MB-435)?
The GI50 was 2.82 µM (inactive).

What about the GI50 (SK-MEL-5) of the same molecule?
The GI50 was 31 µM (inactive).

And the GI50 (NCI/ADR-RES)?
The GI50 was > 100 µM (inactive).

And the GI50 (CCRF-CEM)?
The GI50 was 4.3 µM (inactive).

What about the GI50 (NCI-H226) of the same molecule?
Its GI50 is 5.06 µM (inactive).

What about the GI50 (HOP-62) of the same molecule?
The GI50 was 19.5 µM (inactive).

What about the GI50 (HT-29) of the same molecule?
The GI50 was 3.67 µM (inactive).

What about the GI50 (ACHN) of the same molecule?
Its GI50 is 7.89 µM (inactive).

And the GI50 (SK-OV-3)?
Its GI50 is 22 µM (inactive).

What about the GI50 (NCI-H23) of the same molecule?
The GI50 was 13.3 µM (inactive).

And the GI50 (SNB-19)?
Its GI50 is 14.4 µM (inactive).

And the GI50 (T47D)?
Its GI50 is 3.69 µM (inactive).

What about the GI50 (MCF7) of the same molecule?
Its GI50 is 17 µM (inactive).

What about the GI50 (SF-295) of the same molecule?
Its GI50 is 5.75 µM (inactive).

What about the GI50 (NCI-H460) of the same molecule?
The GI50 was 2.96 µM (inactive).

And the GI50 (HCT-116)?
Its GI50 is 4.05 µM (inactive).

What about the GI50 (MOLT-4) of the same molecule?
The GI50 was 1.51 µM (inactive).

And the GI50 (IGROV-1)?
The GI50 was 16 µM (inactive).

And the GI50 (MDA-N)?
Its GI50 is 5.82 µM (inactive).

And the GI50 (OVCAR-3)?
The GI50 was 4.6 µM (inactive).

And the GI50 (HCT-15)?
Its GI50 is over 100 µM.

And the GI50 (SK-MEL-28)?
Its GI50 is 18.3 µM (inactive).

And the GI50 (EKVX)?
The GI50 was 4.89 µM (inactive).

And the GI50 (RPMI-8226)?
Its GI50 is 9.75 µM (inactive).

And the GI50 (RXF 393)?
Its GI50 is 10.3 µM (inactive).

And the GI50 (OVCAR-4)?
The GI50 was 14.9 µM (inactive).

And the GI50 (LOX IMVI)?
Its GI50 is 4.6 µM (inactive).

What about the GI50 (DU-145) of the same molecule?
The GI50 was 59.4 µM (inactive).

And the GI50 (UACC-257)?
The GI50 was 12.1 µM (inactive).

And the GI50 (KM12)?
The GI50 was 43.6 µM (inactive).

What about the GI50 (Hs-578T) of the same molecule?
The GI50 was 13.4 µM (inactive).

What about the GI50 (CAKI-1) of the same molecule?
The GI50 was 10.8 µM (inactive).

And the GI50 (NCI-H522)?
The GI50 was 11.6 µM (inactive).

And the GI50 (M14)?
The GI50 was 12.6 µM (inactive).

What about the GI50 (MDA-MB-231) of the same molecule?
Its GI50 is 4.9 µM (inactive).

And the GI50 (PC-3)?
Its GI50 is 14.5 µM (inactive).

What about the GI50 (COLO 205) of the same molecule?
Its GI50 is 3.32 µM (inactive).

What about the GI50 (OVCAR-8) of the same molecule?
The GI50 was 5.68 µM (inactive).

What about the GI50 (SW-620) of the same molecule?
The GI50 was 2.54 µM (inactive).

What about the GI50 (UACC-62) of the same molecule?
The GI50 was 6.35 µM (inactive).

And the GI50 (SR)?
Its GI50 is 13.2 µM (inactive).

And the GI50 (OVCAR-5)?
The GI50 was 6.25 µM (inactive).

And the GI50 (SF-268)?
The GI50 was 4.51 µM (inactive).
